Measured values reported in ChEMBL document CHEMBL1127693, “Novel isoxazoles which interact with brain cholinergic channel receptors have intrinsic cognitive enhancing and anxiolytic activities” (J Med Chem, 1994).
pKi: −log10 of the molar value.

Molecular target: Muscarinic acetylcholine receptor (Rattus norvegicus)
Experiment: Binding affinity at muscarinic receptor was determined by displacement of [3H]OXO-M from rat brain

| Structure (SMILES) | pKi |
| --- | --- |
| Cc1cc([C@@H]2CCCN2)on1 | < 4.70 |
| Cc1cc([C@H]2CCCN2)on1 | 5.10 |

Molecular target: not listed separately
Experiment: Binding affinity at CCR was determined by displacement of [125I]- alpha-BgT from Torpedo californica electroplax
Set-up: species or system Tetronarce californica

| Structure (SMILES) | pKi |
| --- | --- |
| Cc1cc([C@@H]2CCCN2)on1 | < 4.70 |
| c1cncc([C@H]2CCCN2)c1 | 6.52 |
| Cc1cc([C@H]2CCCN2)on1 | 5.47 |
| c1cncc([C@@H]2CCCN2)c1 [NORNICOTINE] | 4.96 |

Molecular target: not listed separately
Experiment: Binding affinity at CCR was determined by displacement of [3H]cytisine from rat brain
Type: tissue-based

| Structure (SMILES) | pKi |
| --- | --- |
| Cc1cc([C@@H]2CCCN2)on1 | 6.48 |
| Cc1cc([C@H]2CCCN2C)on1 | 7.36 |
| Cc1cc([C@H]2CCCN2)on1 | 8.13 |

Molecular target: not listed separately
Experiment: Binding affinity at CCR was determined by displacement of [125I]- alpha-BgT from rat brain
Type: tissue-based

| Structure (SMILES) | pKi |
| --- | --- |
| Cc1cc([C@@H]2CCCN2)on1 | < 4.70 |
| Cc1cc([C@H]2CCCN2)on1 | < 4.70 |

Molecular target: not listed separately
Experiment: Binding affinity at CCR was determined by displacement of [3H]nicotine from rat brain
Type: tissue-based

| Structure (SMILES) | pKi |
| --- | --- |
| c1cncc([C@H]2CCCN2)c1 | 7.39 |
| CN1CCC[C@H]1c1cccnc1 [NICOTINE] | 8.85 |
| c1cncc([C@@H]2CCCN2)c1 [NORNICOTINE] | 7.25 |
| CN1CCC[C@@H]1c1cccnc1 [R-NICOTINE] | 7.49 |
